This is an account of results in patent US9464060B2, “Compounds” (TAKEDA PHARMACEUTICAL COMPANY LIMITED, priority 2013, dated 2016).

One test deals with human LPA1 receptors (Homo sapiens (Human), UniProt Q92633). Briefly: In vitro LPA1 receptor assay (LPA-driven intracellular calcium release, FLIPR). It is filed as cell-based. Particulars: RH7777 cells expressing human LPA1 receptors; LPA at EC80. The procedure: In Vitro LPA1 Receptor Assay
Engagement of the LPA1 receptor by its ligand, oleoyl-L-α-lysophosphatidic acid (LPA), leads to the release of intracellular stores of calcium into the cytoplasm mediated through a Gq-driven increase in inositol triphosphate (IP3) levels. Gq is a heterotrimeric G protein subunit that activates phospholipase C.
The ability of test compounds to prevent LPA-driven intracellular release of stored calcium from RH7777 cells expressing human LPA1 receptors was assayed by stimulating the cells with LPA in the presence of various test compounds to measure the test compounds' antagonism, i.e. activity in vitro.
(§1) Approximately 10,000 cells in normal culture medium (Dulbecco's Modified Eagle Media, 10% Foetal Calf Serum) were dispensed per assay well in a black clear bottom collagen coated 384 well plate (Beckton Dickinson). Cells were allowed to settle for thirty minutes at room temperature before being incubated overnight at 37° C., 5% CO2. Sixteen to twenty hours after dispensing, the cells were loaded with a calcium-sensitive fluorescent dye by replacing the culture medium with assay buffer (1× Hanks buffered saline, 25 mM HEPES, 0.1% w/v fatty acid free BSA (bovine serum albumin), pH7.4) containing 1.25 mM probenecid and 1× Calcium 5 Reagent (Molecular Devices). Cells were incubated at 37° C. for one hour to allow for dye uptake.
To test for antagonist activity, test compounds at a final concentration range between 0.32 nM-10 μM (diluted in assay buffer) were added to the assay wells and allowed to incubate for twenty five minutes. […] Ligand-dependent changes in intracellular calcium levels were determined by measuring changes in fluorescence of the dye over […] following excitation over […].
A general note: Calcium flux is commonly read through the fluorescence of an indicator in the cells.

Another test deals with LPA5 receptor (Homo sapiens (Human), UniProt Q9H1C0). Briefly: In vitro LPA5 receptor assay (LPA-driven intracellular calcium release, FLIPR). The following applies: RH7777 cells expressing human LPA5 receptors; LPA at EC90. It is filed as cell-based. The procedure: In Vitro LPA5 Receptor Assay
Engagement of the LPA5 receptor by its ligand, oleoyl-L-α-lysophosphatidic acid (LPA), leads to the release of intracellular stores of calcium into the cytoplasm mediated through a Gq-driven increase in inositol triphosphate (IP3) levels. Gq is a heterotrimeric G protein subunit that activates phospholipase C.
The ability of test compounds to prevent LPA-driven intracellular release of stored calcium from RH7777 cells expressing human LPA5 receptors was assayed by stimulating the cells with LPA in the presence of various test compounds to measure the test compounds'antagonism, i.e. activity in vitro.
as §1, with “(Minimal Essential” for “(Dulbecco's Modified Eagle”, “poly-D-lysine” for “collagen”, “(Corning).” for “(Beckton Dickinson).”
To test for antagonist activity, test compounds at a final concentration range between 0.32 nM-10 μM (diluted in assay buffer) were added to the assay wells and allowed to incubate for fifteen minutes. […] Ligand-dependent changes in intracellular calcium levels were determined by measuring changes in fluorescence of the dye over […] following excitation over […].

Chain of human LPA1 receptors (Q92633 whole entry): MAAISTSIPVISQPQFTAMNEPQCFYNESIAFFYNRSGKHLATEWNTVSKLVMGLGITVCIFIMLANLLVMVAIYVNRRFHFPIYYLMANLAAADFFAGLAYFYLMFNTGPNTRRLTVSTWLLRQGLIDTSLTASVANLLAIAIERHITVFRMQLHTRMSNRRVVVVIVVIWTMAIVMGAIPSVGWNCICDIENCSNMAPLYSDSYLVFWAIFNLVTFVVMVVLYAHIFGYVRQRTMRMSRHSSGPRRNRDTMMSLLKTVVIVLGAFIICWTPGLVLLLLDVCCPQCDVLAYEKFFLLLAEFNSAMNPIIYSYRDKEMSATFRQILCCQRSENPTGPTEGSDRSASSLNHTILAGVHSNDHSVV
Chain of LPA5 receptor (Q9H1C0 whole entry): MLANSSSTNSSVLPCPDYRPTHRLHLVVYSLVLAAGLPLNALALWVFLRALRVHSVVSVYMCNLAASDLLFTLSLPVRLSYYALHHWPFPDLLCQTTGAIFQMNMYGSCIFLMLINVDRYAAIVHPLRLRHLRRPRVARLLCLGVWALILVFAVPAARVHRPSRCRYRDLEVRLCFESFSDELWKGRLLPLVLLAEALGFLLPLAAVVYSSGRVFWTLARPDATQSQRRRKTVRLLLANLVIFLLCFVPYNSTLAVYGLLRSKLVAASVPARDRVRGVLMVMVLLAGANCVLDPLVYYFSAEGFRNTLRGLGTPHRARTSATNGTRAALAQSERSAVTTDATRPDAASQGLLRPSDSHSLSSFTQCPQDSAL

Consider `CCCN(Cc1ccc(C(=O)O)cc1)C(=O)c1ncc(Oc2ccccc2OC)cn1` [Example 85, 4-((5-(2-Methoxyphenoxy)-N-propylpyrimidine-2-carboxamido)methyl)benzoic acid], for which the IC50 – broadly, the midpoint of a concentration-inhibition curve – at human LPA1 receptors came to 180 nM; on LPA5 receptor, 120 nM.

With `COc1ccccc1Oc1ccc(C(=O)N(Cc2ccc(C(=O)O)cc2)CC2CC2)c(F)c1` [Example 66, 4-((N-(Cyclopropylmethyl)-2-fluoro-4-(2-methoxyphenoxy)benzamido)methyl)benzoic acid], the values for the IC50 at human LPA1 receptors and at LPA5 receptor were 7 nM and 5 nM, respectively.

`COc1ccccc1Oc1cnc(C(=O)N(Cc2ccc(C(=O)O)cc2)CC2CC2)nc1` [Example 84, 4-((N-(Cyclopropylmethyl)-5-(2-methoxyphenoxy)pyrimidine-2-carboxamido)methyl)benzoic acid]: the half-maximal inhibitory concentration (IC50) was determined as 170 nM on human LPA1 receptors and 91 nM on LPA5 receptor.

On to `COc1ccccc1Oc1ccc(C(=O)N(Cc2ccc(C(=O)O)cc2)CC(F)(F)F)cc1` [Example 61, 4-((4-(2-Methoxyphenoxy)-N-(2,2,2-trifluoroethyl)benzamido)methyl)benzoic acid], for which the values for the 50% inhibitory concentration (IC50) on human LPA1 receptors and on LPA5 receptor were 4 nM and 8 nM, respectively.

For `CC(F)(F)CN(Cc1ccc(C(=O)O)cc1)C(=O)c1ccc(Oc2ccccc2F)cc1` [Example 74, 4-((N-(2,2-Difluoropropyl)-4-(2-fluorophenoxy)benzamido)methyl)benzoic acid], the half-maximal inhibitory concentration (IC50) on human LPA1 receptors amounted to 40 nM; on LPA5 receptor, 98 nM.

With `CCCN(Cc1ccc(C(=O)O)cc1)C(=O)c1ccc(Oc2ccccc2F)cc1` [Example 60, 4-((4-(2-Fluorophenoxy)-N-propylbenzamido)methyl)benzoic acid], the IC50 at human LPA1 receptors is 33 nM; on LPA5 receptor, 60 nM.

Regarding `Cc1cccc(C)c1Oc1ccc(C(=O)N(CCc2ccccc2)Cc2ccc(C(=O)O)cc2)cc1` [Example 47, 4-((4-(2,6-Dimethylphenoxy)-N-phenethylbenzamido)methyl)benzoic acid], the IC50 at human LPA1 receptors is 22 nM; on LPA5 receptor, 11 nM.

Regarding `COc1ccccc1Oc1ccc(C(=O)N(Cc2ccc(C(=O)O)cc2)CC(C)C)cc1` [Example 30, 4-((N-Isobutyl-4-(2-methoxyphenoxy)benzamido)methyl)benzoic acid], the half-maximal inhibitory concentration (IC50) at human LPA1 receptors and at LPA5 receptor was 12 nM throughout.

As to `Cc1cccc(C)c1Oc1ccc(C(=O)N(CCC(C)C)Cc2ccc(C(=O)O)cc2)cc1` [Example 45, 4-((4-(2,6-Dimethylphenoxy)-N-isopentylbenzamido)methyl)benzoic acid], the half-inhibitory concentration (IC50) amounted to 75 nM at human LPA1 receptors and 99 nM at LPA5 receptor.

`CCCN(Cc1ccc(C(=O)O)cc1)C(=O)c1ccc(Oc2ccccc2OC)cc1` [Example 62, 4-((4-(2-Methoxyphenoxy)-N-propylbenzamido)methyl)benzoic acid]: the IC50 at human LPA1 receptors was found to be 5 nM; at LPA5 receptor, 9 nM.

With `CCN(Cc1ccc(C(=O)O)cc1)C(=O)c1ccc(Oc2ccccc2Cl)cc1` [Example 76, 4-((4-(2-Chlorophenoxy)-N-ethylbenzamido)methyl)benzoic acid], the IC50 on human LPA1 receptors is 130 nM; on LPA5 receptor, 140 nM.

For the molecule `CCCCN(Cc1ccc(C(=O)O)cc1)C(=O)c1ccc(Oc2ccccc2OC)cc1` [Example 65, 4-((N-Butyl-4-(2-methoxyphenoxy)benzamido)methyl)benzoic acid], the IC50 at human LPA1 receptors is 5 nM; at LPA5 receptor, 4 nM.

Turning to `O=C(O)c1ccc(CN(CCc2ccccc2)C(=O)c2ccc(Oc3ccccc3Cl)cc2)cc1` [Example 36, 4-((4-(2-Chlorophenoxy)-N-phenethylbenzamido)methyl)benzoic acid], the IC50 on human LPA1 receptors and on LPA5 receptor was 24 nM throughout.

`O=C(O)c1ccc(CN(CC(F)F)C(=O)c2ccc(Oc3ccccc3Cl)cc2)cc1` [Example 78, 4-((4-(2-Chlorophenoxy)-N-(2,2-difluoroethyl)benzamido)methyl)benzoic acid]: the IC50 worked out at 390 nM at human LPA1 receptors and 170 nM on LPA5 receptor.

In the case of `O=C(O)c1ccc(CN(CCCc2cccc(F)c2)C(=O)c2ccc(Oc3ccccc3F)cc2)cc1` [Example 17, 4-((4-(2-Fluorophenoxy)-N-(3-(3-fluorophenyl)propyl)benzamido)methyl)benzoic acid], the values for the IC50 at human LPA1 receptors and at LPA5 receptor were 0.4 nM and 1 nM, respectively.

On to `COc1ccc(F)cc1Oc1ccc(C(=O)N(Cc2ccc(C(=O)O)cc2)CC2CC2)cc1` [Example 79, 4-((N-(Cyclopropylmethyl)-4-(5-fluoro-2-methoxyphenoxy)benzamido)methyl)benzoic acid], for which the results for the half-maximal inhibitory concentration (IC50) on human LPA1 receptors and at LPA5 receptor were 94 nM and 68 nM, respectively.

On to `COc1ccccc1Oc1ccc(C(=O)N(Cc2ccc(C(=O)O)cc2)CC2CC2)nc1` [Example 69, 4-((N-(Cyclopropylmethyl)-5-(2-methoxyphenoxy)-picolinamido)methyl)benzoic acid], for which the results for the half-maximal inhibitory concentration (IC50) at human LPA1 receptors and on LPA5 receptor were 12 nM and 8 nM, respectively.

Turning to `O=C(O)c1ccc(CN(CC2CC2)C(=O)c2ccc(Oc3c(F)cccc3F)cc2)cc1` [Example 37, 4-((N-(Cyclopropylmethyl)-4-(2,6-difluorophenoxy)benzamido)-methyl)benzoic acid], the IC50 at human LPA1 receptors was determined as 25 nM; on LPA5 receptor, 28 nM.

As to `O=C(O)c1ccc(CN(C[C@@H]2C[C@H]2c2ccccc2)C(=O)c2ccc(Oc3ccccc3F)cc2)cc1` (relative stereo) [Example 18, 4-((4-(2-Fluorophenoxy)-N-((trans-2-phenylcyclopropyl)methyl)-benzamido)methyl)benzoic acid], the concentration for half-maximal inhibition (IC50) on human LPA1 receptors is 1 nM; at LPA5 receptor it was 2 nM.

For `CCCN(Cc1ccc(C(=O)O)cc1)C(=O)c1ccc(Oc2ccc(F)cc2OC)cc1` [Example 80, 4-((4-(4-Fluoro-2-methoxyphenoxy)-N-propylbenzamido)methyl)benzoic acid], the concentration for half-maximal inhibition (IC50) at human LPA1 receptors was 110 nM; on LPA5 receptor, 45 nM.

Turning to `COc1cccc(F)c1Oc1ccc(C(=O)N(Cc2ccc(C(=O)O)cc2)CC2CC2)cc1` [Example 67, 4-((N-(Cyclopropylmethyl)-4-(2-fluoro-6-methoxyphenoxy)benzamido)methyl)benzoic acid], the IC50 on human LPA1 receptors is 7 nM; at LPA5 receptor, 5 nM.

`O=C(O)c1ccc(CN(C[C@@H](O)Cc2ccccc2)C(=O)c2ccc(Oc3ccccc3F)cc2)cc1` [Example 19, (S)-4-((4-(2-Fluorophenoxy)-N-(2-hydroxy-3-phenylpropyl)benzamido)methyl)benzoic acid]: the figures for the half-inhibitory concentration (IC50) on human LPA1 receptors and on LPA5 receptor were 7 nM and 9 nM, respectively.

With `COc1ccccc1Oc1ccc(C(=O)N(CCCc2cccc(F)c2)Cc2ccc(C(=O)O)cc2)cc1` [Example 33, 4-((N-(3-(3-Fluorophenyl)propyl)-4-(2-methoxyphenoxy)-benzamido)methyl)benzoic acid], the figures for the half-maximal inhibitory concentration (IC50) on human LPA1 receptors and on LPA5 receptor were 0.3 nM and 0.4 nM, respectively.

Consider `O=C(O)c1ccc(CN(CC(F)(F)F)C(=O)c2ccc(Oc3ccccc3F)cc2)cc1` [Example 3, 4-((4-(2-Fluorophenoxy)-N-(2,2,2-trifluoroethyl)benzamido)-methyl)benzoic acid], for which the IC50 on human LPA1 receptors was 35 nM; at LPA5 receptor, 43 nM.

Regarding `COc1ccccc1Oc1ccc(C(=O)N(Cc2ccc(C(=O)O)cc2)CC(C)(F)F)cc1` [Example 63, 4-((N-(2,2-Difluoropropyl)-4-(2-methoxyphenoxy)-benzamido)methyl)benzoic acid], the results for the IC50 at human LPA1 receptors and on LPA5 receptor were 7 nM and 10 nM, respectively.

In the case of `O=C(O)c1ccc(CN(CC2CC2)C(=O)c2ncc(Oc3ccccc3F)cn2)cc1` [Example 83, 4-((N-(Cyclopropylmethyl)-5-(2-fluorophenoxy)pyrimidine-2-carboxamido)methyl)benzoic acid], the IC50 on human LPA1 receptors came to 540 nM; on LPA5 receptor, 350 nM.

As for `O=C(O)c1ccc(CN(CC2CC2)C(=O)c2ccc(Oc3ccccc3F)cn2)cc1` [Example 77, 4-((N-(Cyclopropylmethyl)-5-(2-fluorophenoxy)picolinamido)methyl)benzoic acid], the IC50 at human LPA1 receptors was determined as 86 nM; at LPA5 receptor, 74 nM.
